Measurements published in ChEMBL document CHEMBL4765314, “Rational design and biological evaluation of gemfibrozil modified Xenopus GLP-1 derivatives as long-acting hypoglycemic agents” (Eur J Med Chem, 2020).
The source made the active and inactive calls. No cut-off for these calls is given here. Starred links: 1 amine or outer side, 2 acyl side, 3 side chain; linkers in the order of their positions; H or OH if unused. Positions of bridges follow the written chain, without caps; N, C: chain ends. Non-standard residues stand in square brackets, D forms with d. Residues, ends and D or L forms follow the SMILES beside them. Groups on a side chain read outwards from the residue. Chains are numbered I, II in the order given. ξ: configuration not given here. *: point of attachment. X3 = Cc1ccc(C)c(OCCCC(C)(C)C(=O)OCC(=O)NCCCCCC(=O)N[C@@H](CCC(=O)NCCCC[C@H](NO[*:1])C(=O)[*:2])C(=O)O)c1; X2 = Cc1ccc(C)c(OCCCC(C)(C)C(=O)OCC(=O)NCCCCC(NC(=O)COC(=O)C(C)(C)CCCOc2cc(C)ccc2C)C(=O)*)c1; Glycoloyl(O-gemfibrozoyl) = Cc1ccc(C)c(OCCCC(C)(C)C(=O)OCC(=O)*)c1; γGlu = O=C(O)[C@H](CCC(=O)[*:2])N[*:1]; Thr(3ξ) = CC(O)[C@H](N)C(=O)O; Aun = NCCCCCCCCCCC(=O)O; ξK = NCCCCC(N)C(=O)O; Ahx = NCCCCCC(=O)O

Key:
Albumin = Albumin (Homo sapiens, UniProt P02768); assay: Binding affinity to human serum albumin assessed as retention factor by HPAC method; type: ADME
Albumin, sequence (P02768 whole entry): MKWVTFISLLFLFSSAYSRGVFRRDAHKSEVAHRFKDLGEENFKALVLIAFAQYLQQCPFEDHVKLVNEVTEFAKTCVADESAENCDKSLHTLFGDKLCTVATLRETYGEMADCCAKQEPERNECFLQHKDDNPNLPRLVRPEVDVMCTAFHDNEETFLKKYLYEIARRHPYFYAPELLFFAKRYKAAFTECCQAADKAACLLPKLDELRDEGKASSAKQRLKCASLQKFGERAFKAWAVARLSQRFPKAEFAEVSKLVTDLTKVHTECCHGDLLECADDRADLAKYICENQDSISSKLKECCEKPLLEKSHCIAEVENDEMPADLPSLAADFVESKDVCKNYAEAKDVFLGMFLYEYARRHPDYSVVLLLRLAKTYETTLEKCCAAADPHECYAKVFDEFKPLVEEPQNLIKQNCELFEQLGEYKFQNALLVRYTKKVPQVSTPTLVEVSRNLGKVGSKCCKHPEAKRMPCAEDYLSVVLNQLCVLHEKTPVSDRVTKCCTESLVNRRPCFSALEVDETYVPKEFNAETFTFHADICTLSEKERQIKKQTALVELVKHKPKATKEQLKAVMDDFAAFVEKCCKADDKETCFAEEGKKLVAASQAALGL

Mus musculus [1] = assay: Hypoglycemic activity in 12 hrs fasted ICR mouse assessed as reduction in blood glucose level at 25 nmol/kg, ip dosed 30 mins before glucose challenge measured up to 120 mins by OGTT method; type: functional, organism-based; settings: time 150.0 min
[2] = Stability in Sprague-Dawley rat plasma assessed as half life at 1000 ng/ml measured up to 48 hrs under shaking condition by LC-MS/MS analysis; type: ADME, cell-free
Mus musculus [3] = assay: Hypoglycemic activity in non-fasted db/db […] mouse assessed as reduction in blood glucose level at 25 nmol/kg, ip dosed 30 mins before glucose challenge measured up to 120 mins by OGTT method; type: functional, organism-based
[4] = biological target: Glucagon-like peptide 1 receptor (Homo sapiens, UniProt P43220); assay: Agonist activity at human GLP-1R expressed in HEK293 cells assessed as stimulation of cAMP accumulation incubated for 60 mins by HTRF assay; type: functional, cell-based
Glucagon-like peptide 1 receptor, sequence (P43220 whole entry): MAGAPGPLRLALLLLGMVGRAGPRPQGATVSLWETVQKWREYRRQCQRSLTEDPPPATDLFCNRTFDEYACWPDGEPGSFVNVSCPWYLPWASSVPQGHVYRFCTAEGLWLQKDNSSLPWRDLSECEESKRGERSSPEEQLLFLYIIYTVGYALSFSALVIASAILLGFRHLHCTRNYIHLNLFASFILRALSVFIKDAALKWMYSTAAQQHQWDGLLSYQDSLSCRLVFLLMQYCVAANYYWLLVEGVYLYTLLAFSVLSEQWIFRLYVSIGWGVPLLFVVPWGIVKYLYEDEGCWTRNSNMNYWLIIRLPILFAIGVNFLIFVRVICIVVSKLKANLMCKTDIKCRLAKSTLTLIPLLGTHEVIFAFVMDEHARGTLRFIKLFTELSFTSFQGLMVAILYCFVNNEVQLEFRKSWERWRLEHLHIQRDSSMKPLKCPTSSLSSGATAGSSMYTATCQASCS

[5] = Tmax in Sprague-Dawley rat at 50 nmol/kg, sc measured up to 24 hrs by LC-MS/MS analysis; type: ADME, organism-based; settings: in vivo
[6] = Half life in Sprague-Dawley rat at 50 nmol/kg, sc measured up to 24 hrs by LC-MS/MS analysis; type: ADME, organism-based; settings: in vivo
[7] = Stability in Sprague-Dawley rat plasma at 1000 ng/ml measured up to 48 hrs under shaking condition by LC-MS/MS analysis; type: ADME, cell-free

| Compound | K (Albumin) | Activity (Mus musculus [1]) | half-life at 1000 ng/ml [2] [h] | Activity (Mus musculus [3]) | EC50 [4] [nM] | Tmax [5] [h] | half-life [6] [h] | Stabilty [7] |
| --- | --- | --- | --- | --- | --- | --- | --- | --- |
| CC[C@H](C)[C@H](NC(=O)[C@H](CC(C)C)NC(=O)[C@H](Cc1c[nH]c2ccccc12)NC(=O)[C@H](CCC(=O)O)NC(=O)[C@@H](NC(=O)[C@H](Cc1ccccc1)NC(=O)[C@H](CCC(=O)O)NC(=O)C(CCCCNC(=O)CC[C@H](NC(=O)C(CCCCNC(=O)COC(=O)C(C)(C)CCCOc1cc(C)ccc1C)NC(=O)COC(=O)C(C)(C)CCCOc1cc(C)ccc1C)C(=O)O)NC(=O)[C@H](C)NC(=O)[C@H](C)NC(=O)[C@H](CCC(=O)O)NC(=O)[C@H](CCC(=O)O)NC(=O)[C@H](CCC(=O)O)NC(=O)[C@H](CC(C)C)NC(=O)[C@H](Cc1ccc(O)cc1)NC(=O)[C@H](CCC(=O)O)NC(=O)[C@@H](NC(=O)[C@@H](NC(=O)[C@H](CC(=O)O)NC(=O)[C@H](CC(N)=O)NC(=O)[C@@H](NC(=O)[C@H](Cc1ccc(O)cc1)NC(=O)[C@@H](NC(=O)CNC(=O)[C@H](CCC(=O)O)NC(=O)CNC(=O)[C@@H](N)Cc1cnc[nH]1)[C@@H](C)O)[C@@H](C)O)C(C)C)[C@@H](C)O)[C@@H](C)CC)C(=O)N[C@@H](CCCCN)C(=O)NCC(=O)N[C@@H](CCCCN)C(=O)N1CCC[C@H]1C(=O)N[C@@H](CO)C(=O)N[C@@H](CO)C(=O)NCC(=O)N[C@@H](C)C(=O)N1CCC[C@H]1C(=O)N1CCC[C@H]1C(=O)N1CCC[C@H]1C(=O)N[C@@H](C)C(=O)O (stereo partly drawn) (H-HGEGTYTNDVTEYLEEEAA[ξK]([γGlu-X2])EFIEWLIKGKPSSGAPPPA-OH) | 11.8 | Active | 30.4 | Active | 0.11 | – | – | – |
| CC[C@H](C)[C@H](NC(=O)[C@H](CC(C)C)NC(=O)[C@H](Cc1c[nH]c2ccccc12)NC(=O)[C@H](CCC(=O)O)NC(=O)[C@@H](NC(=O)[C@H](Cc1ccccc1)NC(=O)[C@H](CCC(=O)O)NC(=O)[C@H](CCCCNC(=O)CC[C@H](NC(=O)CCCCCNC(=O)COC(=O)C(C)(C)CCCOc1cc(C)ccc1C)C(=O)O)NC(=O)[C@H](C)NC(=O)[C@H](C)NC(=O)[C@H](CCC(=O)O)NC(=O)[C@H](CCC(=O)O)NC(=O)[C@H](CCC(=O)O)NC(=O)[C@H](CC(C)C)NC(=O)[C@H](Cc1ccc(O)cc1)NC(=O)[C@H](CCC(=O)O)NC(=O)[C@@H](NC(=O)[C@@H](NC(=O)[C@H](CC(=O)O)NC(=O)[C@H](CC(N)=O)NC(=O)[C@@H](NC(=O)[C@H](Cc1ccc(O)cc1)NC(=O)[C@@H](NC(=O)CNC(=O)[C@H](CCC(=O)O)NC(=O)CNC(=O)[C@@H](N)Cc1cnc[nH]1)[C@@H](C)O)[C@@H](C)O)C(C)C)C(C)O)[C@@H](C)CC)C(=O)N[C@@H](CCCCN)C(=O)NCC(=O)N[C@@H](CCCCN)C(=O)N1CCC[C@H]1C(=O)N[C@@H](CO)C(=O)N[C@@H](CO)C(=O)NCC(=O)N[C@@H](C)C(=O)N1CCC[C@H]1C(=O)N1CCC[C@H]1C(=O)N1CCC[C@H]1C(=O)N[C@@H](CO)C(=O)O (stereo partly drawn) (H-HGEGTYTNDV[Thr(3ξ)]EYLEEEAAK([γGlu-Ahx-Glycoloyl(O-gemfibrozoyl)])EFIEWLIKGKPSSGAPPPS-OH) | 6.8 | Active | 17.2 | – | 0.083 | – | – | – |
| CC[C@H](C)[C@H](NC(=O)[C@H](CC(C)C)NC(=O)[C@H](Cc1c[nH]c2ccccc12)NC(=O)[C@H](CCC(=O)O)NC(=O)[C@@H](NC(=O)[C@H](Cc1ccccc1)NC(=O)[C@H](CCC(=O)O)NC(=O)[C@H](CCCCNC(=O)CC[C@H](NC(=O)CCCCCCCCCCNC(=O)COC(=O)C(C)(C)CCCOc1cc(C)ccc1C)C(=O)O)NC(=O)[C@H](C)NC(=O)[C@H](C)NC(=O)[C@H](CCC(=O)O)NC(=O)[C@H](CCC(=O)O)NC(=O)[C@H](CCC(=O)O)NC(=O)[C@H](CC(C)C)NC(=O)[C@H](Cc1ccc(O)cc1)NC(=O)[C@H](CCC(=O)O)NC(=O)[C@@H](NC(=O)[C@@H](NC(=O)[C@H](CC(=O)O)NC(=O)[C@H](CC(N)=O)NC(=O)[C@@H](NC(=O)[C@H](Cc1ccc(O)cc1)NC(=O)[C@@H](NC(=O)CNC(=O)[C@H](CCC(=O)O)NC(=O)CNC(=O)[C@@H](N)Cc1cnc[nH]1)C(C)O)C(C)O)C(C)C)[C@@H](C)O)[C@@H](C)CC)C(=O)N[C@@H](CCCCN)C(=O)NCC(=O)N[C@@H](CCCCN)C(=O)N1CCC[C@H]1C(=O)N[C@@H](CO)C(=O)N[C@@H](CO)C(=O)NCC(=O)N[C@@H](C)C(=O)N1CCC[C@H]1C(=O)N1CCC[C@H]1C(=O)N1CCC[C@H]1C(=O)N[C@@H](CO)C(=O)O (stereo partly drawn) (H-HGEG[Thr(3ξ)]Y[Thr(3ξ)]NDVTEYLEEEAAK([γGlu-Aun-Glycoloyl(O-gemfibrozoyl)])EFIEWLIKGKPSSGAPPPS-OH) | 7.6 | Active | 21.4 | – | 0.14 | 2.7 | 3.7 | – |
| CC[C@H](C)[C@H](NC(=O)[C@H](CC(C)C)NC(=O)[C@H](Cc1c[nH]c2ccccc12)NC(=O)[C@H](CCC(=O)O)NC(=O)[C@@H](NC(=O)[C@H](Cc1ccccc1)NC(=O)[C@H](CCC(=O)O)NC(=O)[C@H](CCCCNC(=O)CC[C@H](NC(=O)CCCCCNC(=O)COC(=O)C(C)(C)CCCOc1cc(C)ccc1C)C(=O)O)NOC(=O)[C@H](C)NC(=O)[C@H](C)NC(=O)[C@H](CCC(=O)O)NC(=O)[C@H](CCC(=O)O)NC(=O)[C@H](CCC(=O)O)NC(=O)[C@H](CC(C)C)NC(=O)[C@H](Cc1ccc(O)cc1)NC(=O)[C@H](CCC(=O)O)NC(=O)[C@@H](NC(=O)[C@@H](NC(=O)[C@H](CC(=O)O)NC(=O)[C@H](CC(N)=O)NC(=O)[C@@H](NC(=O)[C@H](Cc1ccc(O)cc1)NC(=O)[C@@H](NC(=O)CNC(=O)[C@H](CCC(=O)O)NC(=O)CNC(=O)[C@@H](N)Cc1cnc[nH]1)[C@@H](C)O)[C@@H](C)O)C(C)C)[C@@H](C)O)[C@@H](C)CC)C(=O)N[C@@H](CCCCN)C(=O)NCC(=O)N[C@@H](CCCCN)C(=O)O (I: H-HGEGTYTNDVTEYLEEEAA / II: EFIEWLIKGK-OH; linker I:C-II:N via X3) | – | Active | 14.2 | – | 0.093 | – | – | Stable |
| H-HGEGTYTNDVTEYLEEEAAK([γGlu-Aun-Glycoloyl(O-gemfibrozoyl)])EFIEWLIKGKPSSGAPPSKKKKKK-OH | 7.3 | Active | 20.1 | – | 0.11 | – | – | – |
